Test [1] deals with T1, PSMA-expressing C4-2 cells (Homo sapiens, UniProt Q04609).
T1 construct: PSMA-expressing C4-2 cells (ATCC, Cat. No. CRL-3314) were cultured in RPMI-1640; host or cells: C4-2 cells
The test can be described thus: FACS binding assay (competition with 50 nM PSM-0183). Particulars: FACS binding, PSMA-expressing C4-2 cells; pIC50 category; read-out: pIC50 [C4-2] CAT (converted). In a few lines: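 Competition format: fluorescent tracer PSM-0183 (50 nM) displaced from PSMA on C4-2 cells by a test compound titration over 1 h at 4 °C. Bound tracer was quantified as flow-cytometric AF488 median fluorescence after washing. Four-parameter logistic fits of MFI data gave IC50 and pIC50.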

Test [2] concerns the target T2, Fc-fusion protein of human PSMA (hPSMA-Fc) (Homo sapiens, UniProt Q04609).
T2 construct: purchased Acro Biosystems PSA-H5264
In words: Surface plasmon resonance assay (Biacore T200, single cycle kinetic). It counts as binding. Particulars: PSMA SPR assay, hPSMA-Fc, 25° C.; pKD category; read-out: pKD CAT (converted). In outline:
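KD, expressed as pKD, came from 1:1 Langmuir fits of reference- and buffer-blank-subtracted SPR data. The runs were single-cycle kinetics at 25° C in HBST/0.1% DMSO over human PSMA-Fc, captured to ~1000 RU on a peptide-coated CM5 surface and regenerated with 10 mM glycine pH 1.5.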

Molecules are shown by their SMILES. Numbered stars: 1 amine (or outer) side, 2 acyl side, 3 side chain; on linkers, the order of the positions; unused ones are H or OH. Bridge positions count the residues as written; N and C are the ends. Square brackets hold non-standard residues; d marks the D form. Peptide text beside a SMILES is read from it. * marks the point of attachment. ξ: configuration not given here. TtdsdLys(DOTA)NH2 = NC(=O)[C@@H](CCCCNC(=O)CN1CCN(CC(=O)O)CCN(CC(=O)O)CCN(CC(=O)O)CC1)NC(=O)CCC(=O)NCCCOCCOCCOCCCN*; X3 = O=C(O)CN1CCN(CC(=O)O)CCN(CC(=O)NCCCOCCOCCOCCCN*)CCN(CC(=O)O)CC1; DOTA = O=C(O)CN1CCN(CC(=O)O)CCN(CC(=O)*)CCN(CC(=O)O)CC1; Trp(6-Cl) = N[C@@H](Cc1c[nH]c2cc(Cl)ccc12)C(=O)O; Phe(4-Cl) = N[C@@H](Cc1ccc(Cl)cc1)C(=O)O; X1 = O=C(CC1CCN([*:1])CC1)[*:2]; Cit = NC(=O)NCCC[C@H](N)C(=O)O; αMeD = C[C@](N)(CC(=O)O)C(=O)O; Suc = O=C(CCC(=O)[*:2])[*:1]; Tle = CC(C)(C)[C@H](N)C(=O)O; NHCH2CH2NMe2 = CN(C)CCN*; ξL = CC(C)CC(N)C(=O)O; Aib = CC(C)(N)C(=O)O

T2 sequence (Q04609 44-750 limits assumed): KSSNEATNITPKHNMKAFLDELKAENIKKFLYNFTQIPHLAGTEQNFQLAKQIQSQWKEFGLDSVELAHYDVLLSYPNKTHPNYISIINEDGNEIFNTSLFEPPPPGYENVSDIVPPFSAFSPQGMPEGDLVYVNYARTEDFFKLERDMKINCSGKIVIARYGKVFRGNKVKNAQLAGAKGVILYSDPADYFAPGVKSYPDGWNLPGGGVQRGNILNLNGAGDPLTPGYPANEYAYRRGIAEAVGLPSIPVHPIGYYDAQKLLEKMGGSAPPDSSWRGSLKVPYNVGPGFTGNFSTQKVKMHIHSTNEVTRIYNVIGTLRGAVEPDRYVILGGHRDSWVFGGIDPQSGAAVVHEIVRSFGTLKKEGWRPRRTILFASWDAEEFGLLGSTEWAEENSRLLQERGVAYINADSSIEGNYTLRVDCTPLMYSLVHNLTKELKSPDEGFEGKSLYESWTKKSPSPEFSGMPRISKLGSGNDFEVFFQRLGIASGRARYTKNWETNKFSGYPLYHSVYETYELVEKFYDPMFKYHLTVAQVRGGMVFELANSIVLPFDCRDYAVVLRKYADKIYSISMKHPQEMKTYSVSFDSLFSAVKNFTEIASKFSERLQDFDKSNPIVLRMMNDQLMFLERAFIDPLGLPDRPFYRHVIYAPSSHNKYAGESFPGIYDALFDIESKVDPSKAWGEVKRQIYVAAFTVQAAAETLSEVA
T1 sequence (Q04609 whole entry): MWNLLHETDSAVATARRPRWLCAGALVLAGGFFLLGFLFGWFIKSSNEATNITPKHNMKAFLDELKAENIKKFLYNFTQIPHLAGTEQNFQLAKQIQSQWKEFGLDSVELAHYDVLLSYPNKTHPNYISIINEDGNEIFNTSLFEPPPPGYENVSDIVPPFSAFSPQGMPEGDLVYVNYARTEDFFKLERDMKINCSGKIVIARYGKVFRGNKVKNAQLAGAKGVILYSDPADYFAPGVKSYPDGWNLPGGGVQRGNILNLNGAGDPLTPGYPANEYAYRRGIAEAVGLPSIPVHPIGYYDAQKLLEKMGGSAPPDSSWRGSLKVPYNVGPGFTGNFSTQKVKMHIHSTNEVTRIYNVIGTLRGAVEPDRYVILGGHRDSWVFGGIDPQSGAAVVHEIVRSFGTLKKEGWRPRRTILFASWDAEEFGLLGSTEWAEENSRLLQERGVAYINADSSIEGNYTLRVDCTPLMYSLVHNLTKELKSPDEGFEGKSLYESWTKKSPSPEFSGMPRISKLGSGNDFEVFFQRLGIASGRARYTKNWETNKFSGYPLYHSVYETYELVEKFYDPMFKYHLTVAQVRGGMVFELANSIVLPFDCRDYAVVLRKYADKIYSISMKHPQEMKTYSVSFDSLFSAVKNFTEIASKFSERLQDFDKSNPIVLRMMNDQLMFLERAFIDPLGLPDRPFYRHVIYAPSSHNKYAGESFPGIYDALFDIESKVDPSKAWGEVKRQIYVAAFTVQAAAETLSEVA

Take `CC(=O)N[C@@H](C)C(=O)N[C@@H](Cc1ccccc1)C(=O)N[C@H]1CSSC[C@@H](C(=O)N[C@@H](CC(C)C)C(=O)N[C@H](C(=O)N[C@@H](CC(=O)O)C(=O)NCCCOCCOCCOCCCNC(=O)CCC(=O)N[C@H](CCCCNC(=O)CN2CCN(CC(=O)O)CCN(CC(=O)O)CCN(CC(=O)O)CC2)C(N)=O)[C@@H](C)O)NC(=O)[C@H](CC(N)=O)NC(=O)[C@H](C)NC(=O)[C@H](CCCNC(=N)N)NC(=O)[C@H](CCCCN)NC1=O` [PSM-0299, Ac-Ala-Phe-[Cys-Lys-Arg-Ala-Asn-Cys]-Leu-Thr-Asp-Ttds-lys(DOTA)-NH2] (Ac-AFCKRANCLTD-{TtdsdLys(DOTA)NH2}; disulfide 3-8): the IC50 in test [1] was 1260 to 3160 nM. In test [2], the Kd was 12.6 to 126 nM.
Consider `CC(=O)N[C@H](C(=O)NC(C)(C)C(=O)N[C@@H](Cc1ccccc1)C(=O)N[C@H]1CSSC[C@@H](C(=O)N[C@H](C(=O)O)C(C)(C)C)NC(=O)[C@H](CC(N)=O)NC(=O)C(C)(C)NC(=O)[C@H](CCCNC(=N)N)NC(=O)[C@H](CCCCN)NC1=O)[C@@H](C)O` [PSM-0300, Ac-Thr-Aib-Phe-[Cys-Lys-Arg-Aib-Asn-Cys]-Tle-OH] (Ac-T[Aib]FCKR[Aib]NC[Tle]-OH; disulfide 4-9), for which the IC50 in test [1] was below 200 nM. The Kd in test [2] was below 12.6 nM.
`C[C@@H](O)[C@H](NC(=O)[C@@H](NC(=O)[C@@H]1CSSC[C@H](NC(=O)[C@H](Cc2ccc(Cl)cc2)NC(=O)C(C)(C)NC(=O)[C@@H](NC(=O)CC2CCN(C(=O)CN3CCN(CC(=O)O)CCN(CC(=O)O)CCN(CC(=O)O)CC3)CC2)[C@@H](C)O)C(=O)N[C@@H](CCCCN)C(=O)N[C@@H](CCCNC(=N)N)C(=O)N[C@@](C)(CC(=O)O)C(=O)N[C@@H](CC(N)=O)C(=O)N1)C(C)(C)C)C(N)=O` [PSM-0302, DOTA-Cmp-Thr-Aib-Pcf-[Cys-Lys-Arg-Amd-Asn-Cys]-Tle-Thr-NH2] ({DOTA}-[X1]T[Aib][Phe(4-Cl)]CKR[αMeD]NC[Tle]T-NH2; disulfide 5-10): the IC50 in test [1] was below 200 nM. For the same molecule, in test [2], the Kd is below 12.6 nM.
Turning to `CC(=O)N[C@H](C(=O)NC(C)(C)C(=O)N[C@@H](Cc1ccccc1)C(=O)N[C@H]1CSSC[C@@H](C(=O)N[C@H](C(=O)N[C@H](C(=O)NCCCOCCOCCOCCCNC(=O)CCC(=O)N[C@H](CCCCNC(=O)CN2CCN(CC(=O)O)CCN(CC(=O)O)CCN(CC(=O)O)CC2)C(N)=O)[C@@H](C)O)C(C)(C)C)NC(=O)[C@H](CC(N)=O)NC(=O)C(C)(C)NC(=O)[C@H](CCC(N)=O)NC(=O)[C@H](CCCCN)NC1=O)[C@@H](C)O` [PSM-0303, Ac-Thr-Aib-Phe-[Cys-Lys-Gln-Aib-Asn-Cys]-Tle-Thr-Ttds-lys(DOTA)-NH2] (Ac-T[Aib]FCKQ[Aib]NC[Tle]T-{TtdsdLys(DOTA)NH2}; disulfide 4-9), the IC50 in test [1] was 200 to 1260 nM. Also, the Kd in test [2] is 12.6 to 126 nM.
The corresponding values for `C[C@@H](O)[C@H](NC(=O)[C@@H](NC(=O)[C@@H]1CSSC[C@H](NC(=O)[C@H](Cc2c[nH]c3cc(Cl)ccc23)NC(=O)C(C)(C)NC(=O)[C@@H](NC(=O)CC2CCN(C(=O)CN3CCN(CC(=O)O)CCN(CC(=O)O)CCN(CC(=O)O)CC3)CC2)[C@@H](C)O)C(=O)N[C@@H](CCCCN)C(=O)N[C@@H](CCCNC(N)=O)C(=O)NC(C)(C)C(=O)N[C@@H](CC(N)=O)C(=O)N1)C(C)(C)C)C(N)=O` [PSM-0304, DOTA-Cmp-Thr-Aib-6Clw-[Cys-Lys-Cit-Aib-Asn-Cys]-Tle-Thr-NH2] ({DOTA}-[X1]T[Aib][Trp(6-Cl)]CK[Cit][Aib]NC[Tle]T-NH2; disulfide 5-10) are 200 to 1260 nM and below 12.6 nM.
The corresponding values for `CC(C)CC(NC(=O)[C@@H]1CSSC[C@H](NC(=O)[C@H](Cc2ccccc2)NC(=O)[C@H](C)NC(=O)[C@@H](NC(=O)CCC(=O)NCCCOCCOCCOCCCNC(=O)CN2CCN(CC(=O)O)CCN(CC(=O)O)CCN(CC(=O)O)CC2)[C@@H](C)O)C(=O)N[C@@H](CCCCN)C(=O)N[C@@H](CCCNC(=N)N)C(=O)N[C@@H](C)C(=O)N[C@@H](CC(N)=O)C(=O)N1)C(=O)N[C@H](C(N)=O)[C@@H](C)O` (stereo partly drawn) [PSM-0305, DOTA-Ttds-Thr-Ala-Phe-[Cys-Lys-Arg-Ala-Asn-Cys]-Lou-Thr-NH2] ({X3-Suc}-TAFCKRANC[ξL]T-NH2; disulfide 4-9) are 200 to 1260 nM and 126 to 501 nM.
Take `C[C@@H](O)[C@H](NC(=O)CC1CCN(C(=O)CN2CCN(CC(=O)O)CCN(CC(=O)O)CCN(CC(=O)O)CC2)CC1)C(=O)NC(C)(C)C(=O)N[C@@H](Cc1ccc(Cl)cc1)C(=O)N[C@H]1CSSC[C@@H](C(=O)N[C@H](C(=O)NCCN(C)C)C(C)(C)C)NC(=O)[C@H](CC(N)=O)NC(=O)C(C)(C)NC(=O)[C@H](CCCNC(=N)N)NC(=O)[C@H](CCCCN)NC1=O` [PSM-0306, DOTA-Cmp-Thr-Aib-Pcf-[Cys-Lys-Arg-Aib-Asn-Cys]-Tle-en (Me) 2] ({DOTA}-[X1]T[Aib][Phe(4-Cl)]CKR[Aib]NC[Tle]-NHCH2CH2NMe2; disulfide 5-10): the IC50 in test [1] was below 200 nM. Further, the Kd in test [2] was 12.6 to 126 nM.

The record behind these values is US20260083865A1, “PROSTATE SPECIFIC MEMBRANE ANTIGEN (PSMA) LIGANDS AND USE THEREOF” (priority 2022, published 2026).
